Experimental data from patent publication US9593146B2, “CD44v6-derived peptides for treating metastasizing cancer” (AMCURE GMBH, priority 2012, dated 2017).

Tested on: HT29 cells
Assay: HGF induced scattering of HT29 cells
Format: cell-based, human
Settings: HT29, HGF 50 ng/ml 24 h, human peptides prior to induction (FIG. 17)
Description: FIG. 17: The human CD44 v6 specific peptides block HGF induced cell scattering and invasion into matrigel. Scattering of HT29 cells was determined in 24-well plates. First, 4.5×10^4 cells were seeded at 37° C.; after 24 h the cells were serum starved for additional 24 h. the cells were either left untreated (control) or later treated with HGF (50 ng/ml) for 24 h. Where indicated the cells were treated with the v6 specific peptide (human v6 5mer, 10mer, 14mer) or control peptide prior to induction with HGF for 30 min. Pictures were made using phase contrast microscopy. Magnification 40×.
A scatter assay was performed additionally. HT29 colon cancer cells were grown in medium containing 10% FCS. One day after seeding, the cells were starved. On the third day, the cells were induced with HGF (10 ng/ml) and pre-incubated with either no peptide, ctrl-peptides (SEQ ID No.: 15), non-pegylated v6-peptides (SEQ ID No.: 11) or the pegylated peptides, namely PEG-rat control peptide and PEG-rat CD44v6 peptide.
Scattering of HT29 cells was determined in 24-well plates. First, 4×10^5 cells were seeded at 37° C.; the cells were either left untreated or 48 h later treated with HGF (50 ng/ml) for 24 h or with PEGylated or non-PEGylated peptides (100 ng/ml) prior to HGF induction for 30 min.

KEQWFGNRWHEGYR [human 14mer, human CD44v6 14mer peptide]
HGF induced scattering or invasion through the extracellular matrix: prevented completely scattering or invasion through the extracellular matrix
